# Measured values as given in PubChem BioAssay (NCI).
# Where “and” joins values, the source holds several entries; their conditions need not be identical. Equal values may be shown once.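 Briefly, cells in 96-well plates were exposed to five compound concentrations for 48 h, and endpoints were estimated by linear interpolation. The concentration for 50% growth inhibition is given as GI50. TGI marks complete inhibition of growth.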
# Columns and labels:
# Assay in all cases: DTP human tumour cell line panel, 48 h
# SK-MEL-2 melanoma = tested on: SK-MEL-2 melanoma
# OVCAR-3 ovarian = tested on: OVCAR-3 ovarian
# NCI-H522 lung = tested on: NCI-H522 lung
# UO-31 renal = tested on: UO-31 renal
# HL-60(TB) leukemia = tested on: HL-60(TB) leukemia
# NCI-H23 lung = tested on: NCI-H23 lung
# SW-620 colon = tested on: SW-620 colon
# ACHN renal = tested on: ACHN renal
# HOP-62 NSCLC = tested on: HOP-62 NSCLC
# LOX IMVI melanoma = tested on: LOX IMVI melanoma
Structure (SMILES),GI50 (SK-MEL-2 melanoma),TGI (SK-MEL-2 melanoma),GI50 (OVCAR-3 ovarian),TGI (OVCAR-3 ovarian),GI50 (NCI-H522 lung),TGI (NCI-H522 lung),GI50 (UO-31 renal),TGI (UO-31 renal),GI50 (HL-60(TB) leukemia),TGI (HL-60(TB) leukemia),GI50 (NCI-H23 lung),TGI (NCI-H23 lung),GI50 (SW-620 colon),TGI (SW-620 colon),GI50 (ACHN renal),TGI (ACHN renal),GI50 (HOP-62 NSCLC),TGI (HOP-62 NSCLC),GI50 (LOX IMVI melanoma),TGI (LOX IMVI melanoma)
Cn1ccnc1C(=O)/C=C/c1ccc(CC(=O)Nc2cc(F)c(F)c(F)c2)cc1,4.22 µM,10.6 µM,1.36 µM,4.44 µM,2.64 µM,7.72 µM,1.7 µM,4.96 µM,0.716 µM,2.45 µM,2.08 µM,9.53 µM,1.46 µM,8.98 µM,4.53 µM,19.2 µM,1.17 µM,4.94 µM,1.03 µM,3.79 µM
NS(=O)(=O)c1ccc(N=Nc2cc3ccccc3c(C(=O)O)c2O)cc1,–,> 67.1 µM,–,> 87.6 µM,–,> 65.6 µM,–,99 µM,–,> 100 µM,–,> 100 µM,–,> 100 µM,–,52.5 µM,–,> 100 µM,–,> 100 µM
COc1ccc(CN[C@H]2CCc3cc(OC)c(OC)c(OC)c3-c3ccc(SC)c(=O)cc32)c(OC)c1OC,0.0118 µM,–,< 0.01 µM,0.0618 µM and 0.028 µM,–,0.0495 µM,0.0898 µM,98.9 µM,< 0.01 µM,–,< 0.01 µM,0.058 µM and 0.0396 µM,< 0.01 µM,> 100 µM,0.0428 µM,> 100 µM,0.375 µM,> 100 µM,< 0.01 µM,15.7 µM
O=[N+]([O-])C1(CO)COC2(OC1)c1ccccc1-c1ccccc12,–,> 100 µM,–,> 100 µM,–,41 µM,–,> 100 µM,–,58.5 µM,–,> 100 µM,–,44.5 µM,–,> 100 µM,–,> 100 µM,–,67.7 µM
O=C(N/N=C\c1cc(Br)cc(Br)c1O)N/N=C/c1cc(Br)cc(Br)c1O,11.2 µM,24 µM,4.03 µM,16.3 µM,3.08 µM,13.8 µM,1.8 µM,8.7 µM,1.28 µM,4.76 µM,6.21 µM,23.5 µM,4.52 µM,19.6 µM,4.06 µM,13.5 µM,8.99 µM,22.8 µM,2.57 µM,12.1 µM
C=CCN1C(=O)C/C(=C2/CCC(=O)N2CC=C)C1=O,–,> 100 µM,–,> 100 µM,–,> 100 µM,–,> 100 µM,–,> 100 µM,–,> 100 µM,–,> 100 µM,–,> 100 µM,–,> 100 µM,–,> 100 µM
CCc1cc(Nc2nccc(-c3c(-c4ccc(OC)c(C(=O)Nc5c(F)cccc5F)c4)nc4ccccn34)n2)c(OC)cc1N1CCC(N2CCN(S(C)(=O)=O)CC2)CC1,> 51.8 µM,> 88.4 µM,> 100 µM,> 100 µM,> 100 µM,> 100 µM,> 100 µM,> 100 µM,> 100 µM,> 100 µM,> 100 µM,> 100 µM,> 100 µM,> 100 µM,> 100 µM,> 100 µM,> 100 µM,> 100 µM,> 100 µM,> 100 µM
N#CC(N)(C(=O)C(=O)NCCCNC(=O)C(=O)C(N)(C#N)c1ccc(Cl)cc1)c1ccc(Cl)cc1 (configuration not stated),–,> 100 µM,–,> 100 µM,–,> 100 µM,–,> 100 µM,–,> 100 µM,–,> 100 µM,–,> 100 µM,–,> 100 µM,–,> 100 µM,–,> 100 µM
Fc1ccc(-c2ncn(C3CCNCC3)c2-c2ccnc(Oc3ccc(Oc4ccccc4)cc3)n2)cc1,5.03 µM,9.06 µM,4.36 µM,7.94 µM,4.67 µM,8.7 µM,2.96 µM,6.29 µM,3.93 µM,8.33 µM,4.08 µM,7.9 µM,3.55 µM,7.06 µM,3.77 µM,7.19 µM,4.05 µM,7.64 µM,3.15 µM,7.09 µM
COc1ccc(OC)c(/C=C/C(=O)c2ccc(SC)cc2)c1,6.12 µM,20.4 µM,0.0897 µM,2.7 µM,6.91 µM,23.4 µM,15.5 µM,30.7 µM,3.65 µM,12.6 µM,2.77 µM,7.6 µM,3.45 µM,> 100 µM,17.2 µM,38.4 µM,18.4 µM,52.3 µM,12.3 µM,28 µM
Nc1ccc(Sc2ccc3c4c2cccc4c(=O)n2c4ccccc4nc32)cc1,8.87 µM,65.6 µM,6.4 µM,24.4 µM,3.99 µM,36.8 µM,2.43 µM,18.7 µM,3.71 µM,12 µM,5.03 µM,> 100 µM,5.16 µM,> 100 µM,2.37 µM,10.2 µM,4.34 µM,17.2 µM,3.32 µM,14.3 µM
CCOC(=O)Nc1ccc2nc(Sc3ccc(Cl)cc3)sc2c1,2.56 µM,26.4 µM,1.89 µM,> 32.6 µM,2.47 µM,35.2 µM,9.57 µM,79.4 µM,0.815 µM,30.1 µM,10.2 µM,> 100 µM,0.488 µM,> 100 µM,11.5 µM,> 90.4 µM,9.43 µM,> 100 µM,4.45 µM,25.3 µM
CC(C)N(C(=O)C12C3C4C5C3C1(C(=O)N(C(C)C)C(C)C)C5C42)C(C)C (configuration not stated),–,> 100 µM,–,> 100 µM,–,> 100 µM,–,> 100 µM,–,> 55.6 µM,–,> 100 µM,–,> 88.2 µM,–,> 100 µM,–,> 100 µM,–,> 69.5 µM
CCOC(=O)CCC(NC(=O)c1ccc(Nc2nc3cc(N)cc(N)c3nc2-c2ccccc2)cc1)C(=O)OCC (configuration not stated),16.5 µM,> 86 µM,13.4 µM,39.4 µM,27.9 µM,> 100 µM,> 46.6 µM,> 87.1 µM,9.62 µM,50.7 µM,30.8 µM,> 74.5 µM,45.6 µM,> 100 µM,> 35.9 µM,> 68.6 µM,> 44.1 µM,> 63 µM,25.4 µM,> 100 µM
